What all share (assay type): cell-based
For one assay, the system named is MDA-MB-231 cells. Briefly: Inhibition of proliferation of MDA-MB-231 cells by the cytotoxic agents (14C-thymidine incorporation). Particulars: Homo sapiens, 3 days culture, 14C-thymidine incorporation at 96 hours. As to the method:
(§1) Evaluation of the inhibition of proliferation of MDA-MB-231, MDA-A1 and HCT116 cell lines by the cytotoxic agents, study performed on the compounds of formula (II) of the type SZa with Za═SMe or of the type —C(═O)—ZbRb with ZbRb=OMe or OCH2—CH═CH2 The MDA-MB-231, MDA-A1 or HCT116 cells in their exponential growth phase are trypsinized and resuspended in their respective culture medium (DMEM/F12 Gibco #21331, 10% FCS Gibco #10500-056, […] Gibco #25030 for the MDA cells; DMEM Gibco #11960, 10% FCS Gibco #10500-056, 2 mM glutamine Gibco #25030 for the HCT116 cells). The cell suspension is seeded in Cytostar 96-well culture plates (GE Healthcare Europe, #RPNQ0163) in the whole culture medium containing serum at a density of 5000 cells/well (MDA-MB-231, MDA-A1, HCT116). After incubation for 4 hours, successive dilutions of the cryptophycin derivatives are added to the wells at concentrations decreasing from 10^−7 to 10^−12 M (in triplicate for each concentration). The cells are cultured for 3 days at 37° C. under an atmosphere containing 5% CO2 in the presence of the cytotoxic agents. On the 4th day, 10 μl of a ^14C-thymidine solution (0.1 μCi/well, Perkin Elmer #NEC56825000) are added to each well. The incorporation of ^14C-thymidine is measured 96 hours after the start of the experiment using a microbeta radioactivity counter (Perkin Elmer). The data are expressed in the form of a percentage of survival by determining the ratio between the reduced count obtained with the cells treated with cytotoxic agent and the count obtained with the cells of the control wells (treated with the culture medium alone).
Background: Uptake of a labelled nucleoside into DNA is a usual measure of proliferation.

The next assay concerns MDA-A1 cells. Briefly: Inhibition of proliferation of MDA-A1 cells by the cytotoxic agents (14C-thymidine incorporation). As to conditions: 3 days culture, 14C-thymidine incorporation at 96 hours. As to the method: as §1
In another assay the test system is HCT116 cells. The assay is described as follows: Inhibition of proliferation of HCT116 cells by the cytotoxic agents (14C-thymidine incorporation). As to conditions: Homo sapiens, HCT-116, 3 days culture, 14C-thymidine incorporation at 96 hours. As to the method:
as §1

What is called IC50 is the concentration that inhibits the measured activity by half. A high value points to a need for much substance.

Each structure is given as a SMILES string.

In the case of `COc1ccc(C[C@H]2NC(=O)/C=C/C[C@@H]([C@H](C)[C@H]3O[C@@H]3c3ccc(CO)cc3)OC(=O)[C@H](CC(C)C)OC(=O)C(C)(C)CNC2=O)cc1Cl` [Compound 1, reference compound], the IC50 worked out at 0.041 nM in the assay on MDA-MB-231 cells, 1.07 nM in the assay on MDA-A1 cells and 0.032 nM in the assay on HCT116 cells.

In the case of `COc1ccc(C[C@H]2NC(=O)/C=C/C[C@@H]([C@H](C)[C@H]3O[C@@H]3c3ccc(CN4CCN(C(=O)CCC(C)(C)SSC)CC4)cc3)OC(=O)[C@H](CC(C)C)OC(=O)C(C)(C)CNC2=O)cc1Cl` [Compound 7, (E)-(3S,10R,16S)-10-(3-Chloro-4-methoxybenzyl)-3-isobutyl-6,6-dimethyl-16-[(S)-1-((2R,3R)-3-{4-[4-(4-methyl-4-methyldisulfanylpentanoyl)piperazin-1-ylmethyl]phenyl}oxiranyl)-ethyl]-1,4-dioxa-8,11-diazacyclohexadec-13-ene-2,5,9,12-tetraone], the IC50 came out at 0.303 nM in the assay with MDA-MB-231 cells, 7.95 nM in the assay with MDA-A1 cells and 0.315 nM in the assay with HCT116 cells.

Take `COc1ccc(C[C@H]2NC(=O)/C=C/C[C@@H]([C@H](C)[C@H]3O[C@@H]3c3ccc(CO)cc3)OC(=O)[C@H](CC(C)C)OC(=O)[C@H](C)CNC2=O)cc1Cl` [Compound 8, reference compound]: the IC50 in the assay with MDA-MB-231 cells worked out at 0.104 nM; in the assay with MDA-A1 cells, 0.828 nM; in the assay on HCT116 cells, 0.052 nM.

For `COc1ccc(C[C@H]2NC(=O)/C=C/C[C@@H]([C@H](C)[C@H]3O[C@@H]3c3ccc(CNCC(C)(C)SSC)cc3)OC(=O)[C@H](CC(C)C)OC(=O)C(C)(C)CNC2=O)cc1Cl` [Compound 13, (E)-(3S,10R,16S)-10-(3-Chloro-4-methoxybenzyl)-3-isobutyl-16-[(S)-1-((2R,3R)-3-{4-[(2-methyl-2-methyldisulfanylpropylamino)methyl]phenyl}oxiranyl)ethyl]-6,6-dimethyl-1,4-dioxa-8,11-diazacyclohexadec-13-ene-2,5,9,12-tetraone], the IC50 in the assay on MDA-MB-231 cells was determined as 0.529 nM; in the assay with MDA-A1 cells, 9.76 nM; in the assay on HCT116 cells, 0.336 nM.

In the case of `COc1ccc(C[C@H]2NC(=O)/C=C/C[C@@H]([C@H](C)[C@H]3O[C@@H]3c3ccc(CN4CCN(CC(C)(C)SSC)CC4)cc3)OC(=O)[C@H](CC(C)C)OC(=O)C(C)(C)CNC2=O)cc1Cl` [Compound 19, (E)-(3S,10R,16S)-10-(3-Chloro-4-methoxybenzyl)-3-isobutyl-6,6-dimethyl-16-[(S)-1-((2R,3R)-3-{4-[4-(2-methyl-2-methyldisulfanylpropyl)piperazin-1-ylmethyl]phenyl}oxiranyl)ethyl]-1,4-dioxa-8,11-diazacyclohexadec-13-ene-2,5,9,12-tetraone], the IC50 in the assay with MDA-MB-231 cells amounted to 0.149 nM; in the assay with MDA-A1 cells, 2.71 nM; in the assay on HCT116 cells it was 0.152 nM.

In the case of `COc1ccc(C[C@H]2NC(=O)/C=C/C[C@@H]([C@H](C)[C@H]3O[C@@H]3c3ccc(CN(C)CCOCCOCCOCCN(C)CC(C)(C)SSC)cc3)OC(=O)[C@H](CC(C)C)OC(=O)C(C)(C)CNC2=O)cc1Cl` [Compound 30], the IC50 in the assay with MDA-MB-231 cells came out at 0.03 nM; in the assay on MDA-A1 cells, 11.9 nM; with HCT116 cells it was 0.031 nM.

As for `C=CCOC(=O)CN1CCN(Cc2ccc([C@H]3O[C@@H]3[C@@H](C)[C@@H]3C/C=C/C(=O)N[C@H](Cc4ccc(OC)c(Cl)c4)C(=O)NCC(C)(C)C(=O)O[C@@H](CC(C)C)C(=O)O3)cc2)CC1` [Compound 40, Allyl (4-{4-[(2R,3R)-3-((S)-1-{(E)-(3S,10R,16S)-10-[3-chloro-4-methoxybenzyl]-3-isobutyl-6,6-dimethyl-2,5,9,12-tetraoxo-1,4-dioxa-8,11-diazacyclohexadec-13-en-16-yl}ethyl)-oxiranyl]benzyl}piperazin-1-yl)acetate], the IC50 in the assay on MDA-MB-231 cells is 0.293 nM; with MDA-A1 cells, 1.58 nM; with HCT116 cells, 0.12 nM.

For the compound `C=CCOC(=O)CCOCCOCCOCCOCCNCc1ccc([C@H]2O[C@@H]2[C@@H](C)[C@@H]2C/C=C/C(=O)N[C@H](Cc3ccc(OC)c(Cl)c3)C(=O)NCC(C)(C)C(=O)O[C@@H](CC(C)C)C(=O)O2)cc1` [Compound 44, Allyl (2-{2-[2-(2-{4-[(2R,3R)-3-((S)-1-{(E)-(3S,10R,16S)-10-[3-chloro-4-methoxy-benzyl]-3-isobutyl-6,6-dimethyl-2,5,9,12-tetraoxo-1,4-dioxa-8,11-diazacyclohexadec-13-en-16-yl}ethyl)oxiranyl]benzylamino}ethoxy)ethoxy]ethoxy}ethoxy)propanoate], the IC50 in the assay with MDA-MB-231 cells was 0.156 nM; in the assay with MDA-A1 cells it was 15.6 nM; with HCT116 cells, 0.135 nM.

Consider `COc1ccc(C[C@H]2NC(=O)/C=C/C[C@@H]([C@H](C)[C@@H]3O[C@H]3c3ccc(CO)cc3)OC(=O)[C@H](CC(C)C)OC(=O)C(C)(C)CNC2=O)cc1Cl` [Compound 57], for which the IC50 with MDA-MB-231 cells came to 1.19 nM; in the assay on MDA-A1 cells, 29 nM; with HCT116 cells it was 1.13 nM.

In the case of `COC(=O)CCCc1cn(Cc2ccc([C@H]3O[C@@H]3[C@@H](C)[C@@H]3C/C=C/C(=O)N[C@H](Cc4ccc(OC)c(Cl)c4)C(=O)NCC(C)(C)C(=O)O[C@@H](CC(C)C)C(=O)O3)cc2)nn1` [Compound 62, Methyl (1-{4-[(2R,3R)-3-((S)-1-{(E)-(3S,10R,16S)-10-[3-chloro-4-methoxybenzyl]-3-isobutyl-6,6-dimethyl-2,5,9,12-tetraoxo-1,4-dioxa-8,11-diazacyclohexadec-13-en-16-yl}ethyl)-oxiranyl]benzyl}-1H-1,2,3-triazol-4-yl)butanoate], the results for the IC50 in the assay on MDA-MB-231 cells, with MDA-A1 cells and in the assay with HCT116 cells were 0.095 nM, 10.9 nM and 0.035 nM, respectively.

For the compound `COc1ccc(C[C@H]2NC(=O)/C=C/C[C@@H]([C@H](C)[C@H]3O[C@@H]3c3ccc(CN)cc3)OC(=O)[C@H](CC(C)C)OC(=O)C(C)(C)CNC2=O)cc1Cl` [Compound 77, (E)-(3S,10R,16S)-16-{(S)-1-[(2R,3R)-3-(4-Aminomethylphenyl)oxiranyl]ethyl}-10-(3-chloro-4-methoxybenzyl)-3-isobutyl-6,6-dimethyl-1,4-dioxa-8,11-diazacyclohexadec-13-ene-2,5,9,12-tetraone], the IC50 in the assay on MDA-MB-231 cells came out at 0.17 nM; in the assay with MDA-A1 cells, 15.1 nM; in the assay with HCT116 cells it was 0.105 nM.

(Values after patent publication US8952147B2, “Conjugates, preparation thereof, and therapeutic use thereof” (Sanofi, priority 2009, dated 2015).)
